A short description of series [1]: pH of maleate of compound A and additive dissolved or suspended in 10 mmol/L KCl solution. The conditions noted are these: maleate of compound A 1 mg/mL with additive. The class given is physicochemical. The procedure:
The pH was measured when the maleate of compound A and the additive were dissolved or suspended in a 10 mmol/L KCl solution in such a way as to reach the respective numerical values shown in Table 2 to Table 6.

Series [2] in a line: Evaluation of degradation material: stress test at 70° C. for 7 days, HPLC. The series is classed as physicochemical. Particulars: class of degradation material after 70° C. The method, then: The prepared solid pharmaceutical composition was subjected to a stress test that it was stored in a thermostat at 70° C. for 7 days. The storage stability was evaluated in terms of the amount of compound A decomposed by the following method.
The above stored solid pharmaceutical composition was adjusted with water/acetonitrile/pH 3.0 phosphate buffer (450:50:1) such that the maleate of compound A had 333 μg/mL and was filtered through a membrane filter to obtain a filtrate. The degradation material of compound A was quantified by high performance liquid chromatography (HPLC). The amount of the degradation material detected at a relative retention time of 0.94 with respect to compound A was quantified as the degradation material of compound A under the following measurement conditions.
(HPLC Measurement Condition)
Evaluation criteria for the degradation material are as follows:
Evaluation was performed in the same manner as described in Examples 1-19 and Comparative Examples 1-14.

For the compound `OC1CN(CCCOCCc2ccc3sccc3c2)C1` [compound 14, 1-(3-(2-(1-benzothiophen-5-yl)ethoxy)propyl)azetidin-3-ol], the pH in series [1] is recorded as 4.5. For the same compound, in series [2], the “Evaluation of degradation material” value is “A (Less than 0.25%)”.

The values are drawn from patent US10849880B2, “Pharmaceutical composition” (FUJIFILM Toyama Chemical Co., Ltd., priority 2016, dated 2020).
